Source: patent publication US8158142B2, “3-deazaadenosine prevents atherosclerosis and graft vasculopathy” (Kerckhoff-Klinik Gesellschaft mit beschrankter Haftung, priority 1998, dated 2012)

Columns and labels:
CD11b-positive monocytes = assay: Counting of CD11b-positive monocytes in aortic sections; type: in vivo, mouse
Experimental: (§1) Serial cryostate sections (8 μm) from the following 3 parts of the ascending aorta were chosen: 8-32 μm, 120-144 μm and 240-264 μm distal to the aortic sinus. The frozen sections were fixed in ice-cold acetone and dried for 10 minutes. Sections were then incubated for 10 minutes in a 1:1000 dilution of mouse serum (Sigma, St. Louis, Mo., USA). After rinsing with RPMI 1640 (Life Technologies, Paisley, Scotland), the sections were incubated for 40 minutes at room temperature with a 1:100 dilution of a monoclonal rat anti-mouse antibody against ICAM-1 (CF54) or VCAM-1 (CD106, Dianova GmbH, Hamburg, Germany). Detection of monocytes/macropheges was performed using monoclonal rat anti-mouse antibody CD11 b (MAC-1) (Serotec Ltd., Oxford, England).
(§2) After additional washing steps with TRIS buffer (USB, Cleveland, Ohio, USA) and incubation with a secondary antibody (AffiniPureMouse anti-ret IgG, Dianova, Germany) (1:400) for 10 minutes, followed by incubation with a linking antibody (Dualsystem-Brückenantikörper; Dianova, Hamburg, Germany) (1:600) for 10 minutes, the sections were incubated with an alkaline phosphatase anti-alkaline phosphatese complex (APAPP) (1:50; Dianova, Hamburg, Germany) for 30 minutes. The development of the sections was performed in neufuchsin developer solution. Sections were finally counterstained with hemalaun (Merck, Darmstadt, Germany) for 10 seconds. Control sections were treated with linking secondary antibody and APAAP complex only.
(§3) The intensity of staining with ICAM-1 and VCAM-1 was scored from 1 to 4 as follows: score 1=no staining, score 2=weak staining, score 3=moderate staining and score 4=strong staining of the vascular cells. The number of CD11b-positive cells was counted in each section, and the localization of the cells was classified as adherent to the wall, or localized in the intima or in the media.

endothelial cells = conditions: in vitro, via selective inhibition of ICAM-1 synthesis; cited from earlier work
[1] = tested on: Lewis rats which received heterotopically transplanted hearts from Fisher rats; assay: Heterotopic heart allograft survival and rejection (Fisher to Lewis rats); type: in vivo, rat
Experimental: (§4) 3-Deazaadenosine was orally administered by mixing into the regular food at a final concentration of 0.04 mg/g, according to a daily oral dose of 10 mg/kg c3Ado per animal, in addition to or in absence of cyclosporine (0.2 mg/kg body weight) to Lewis rats which received heterotopically transplanted hearts from Fisher rats. For a third control group, only cyclosporine was administered daily to the other allograft recipients. All animals got a standard diet over the whole study period. Allografts were harvested on day 120, cardiac graft beat was assessed by daily palpation, and the complete cessation of the graft beat was interpreted as rejection.

VCAM-1 [2] = assay: Immunohistochemical staining of VCAM-1 in ascending aorta (APAAP method); type: in vivo, mouse; conditions: for Endothelial expression of VCAM-1 in the aorta (words): mice on atherogenic diet treated with c^3Ado, FIG. 4
Experimental: as §1, §2, §3

[3] = biological target: adenosylhomocysteine hydrolase (Homo sapiens, UniProt P23526); conditions: cited from earlier work
female C57BL/J6 mice = assay: Quantification of atherosclerotic lesions and neointimal proliferation in the ascending aorta of mice on atherogenic diet; type: in vivo, mouse; conditions: for NI/M Ratio (neointimal to medial area ratio): mean ± SEM, 3 sections per animal
Source text: (§5) Six to eight week old female C57BL/J6 mice (Charles Rivers Wiga, Sulzfeld, Germany) with an average body weight of 20 g were randomly divided into three groups:
Group 1: control animals (n=9) maintained on a normal mouse diet (Altromin, Standard Diet; Lage, Germany).
Group 2: nine animals receiving an atherogenic diet based on normal mouse chow but differing in total fat content (10% vs. 5%), protein content (15.4% vs. 22%) and cholesterol content (1% vs. 0%). The total energy was 3790 vs. 3000 kcal/kg.
Group 3: nine animals on an atherogenic diet as described above, and 3-deazaadenosine (c^3Ado) (Southern Research, Birmingham, Ala., USA) mixed into the food at a final concentration of 0.04 mg/g, according to a daily oral dose of 10 mg/kg c^3Ado per animal.
(§6) The average intake of food for each animal was 5.2 g per day. Food and water were replenished every 2 days, and the volumes consumed for each cage were recorded. The mice were kept in accordance with standard animal care requirements and were maintained on a 12 hour light-dark cycle with autoclaved water in a temperature-controlled environment. All animals remained healthy during the experimental period. After 9 weeks, mice were sacrificed by inhalation of trichlormethane. The heart and the ascending aorta were removed and rinsed with PBS DULBECCO'S (Life Technologies, Paisley, Scotland). The lower half of the heart was transected along a line between the tips of the atria to obtain a base for the emerging ascending aorta. This procedure allowed an exact vertical embedding of the aorta in Tissue-Tek (Miles, USA) for optimal plane cross sections. The sections were frozen in liquid nitrogen and stored at −80° C. until further study.
A modification of the method described by Paigen at el. (29) was used to evaluate aortic lesion formation. The frozen tissue blocks were placed on a cryotome, and 8 μm serial sections of the ascending aorta were collected on coated glass slides until we were able to locate the most cranial portion of the aortic sinus by examining unstained sections. Once this section (No.1) was identified, the cranial 35 sections, covering 280 μm of the ascending aorta, were placed on separate slides for further evaluation. Every fifth section of the first 280 μm of the ascending aorta was stained with oil red O (Riedel de Haen, Germany) and counterstained with hemalaun (Merck, Darmstadt, Germany) end elastic van Gieson (Chrome-Gesellsohaft, Schmid GmbH, Köngen, Germany). Lesion area as well as intimal and medial area were blindly determined using a video-computer aided microscopy planimetry system (Zeiss, Oberkochen, Germany; Video Camera 3 CCD,
Sony; 40× lens magnification; IBAS-2 with IBAS Version 2.0 Standard, Kontron, München, Germany).
The number of lesions was counted as described previously by reviewing every fifth section. […] The number of lesions in each cross section was also counted. Size of the lesions was determined as length of lesion along the luminal aortic perimeter which was related to the total luminal aortic perimeter in the section.
The extent of neointimal proliferation was quantified by measuring the area (μm^2) of the neointima and the media in each ascending aorta from 3 sections (No.10, 20 and 30). In each section four sectors (at 0°, 90°; 180° and 270°) of the vessel wall were analyzed in a defined window of 63 μm×63 μm to measure neointimal area enclosed by the endothelial layer and internal elastic lamina and external elastic lamina. Ratio of neointimal to medial are ratio (NI/M) was averaged for each animal.

ICAM-1 [4] = assay: Immunohistochemical analysis of ICAM-1 in transplanted hearts; type: in vivo, rat; conditions: heart allograft, day 120
Experimental: as §4, with “rejection. […]” for “rejection.”
(§7) For immunohistochemical analysis of VCAM-1 and ICAM-1. two complete transverse sections of the transplanted heart approximately 3 mm in thickness were obtained and stored in optimum cutting temperature compound. Serial sections were cut and dipped in cold acetone for 10 minutes. The staining procedures were performed as described previously. The expression of the adhesion molecules was scored on the basis of endothelial cells and smooth muscle cells of epicardial arteries and intramyocardial aterioles. Analysis was done semiquantitatively by scoring the intensity of the staining and counting of the number of stained cells.

VCAM-1 [5] = assay: Immunohistochemical analysis of VCAM-1 in transplanted hearts; type: in vivo, rat; conditions: heart allograft, day 120
Experimental: as §4, with “rejection. […]” for “rejection.”
as §7

ICAM-1 [6] = assay: Immunohistochemical staining of ICAM-1 in ascending aorta (APAAP method); type: in vivo, mouse; conditions: for Endothelial expression of ICAM-1 in the aorta (words): mice on atherogenic diet treated with c^3Ado, FIG. 4
Experimental: as §1, §2, §3

monocyte = conditions: cited from earlier work
Body weight development = type: in vivo, mouse; conditions: day 65, atherogenic diet + c^3Ado 10 mg/kg/day oral, mean ± SEM, n = 9
Experimental: as §5, §6

[7] = tested on: Lewis rats which received heterotopically transplanted hearts from Fisher rats; assay: Graft vasculopathy / graft atherosclerosis (intimal thickening) in transplanted hearts; type: in vivo, rat; conditions: after 120 days
Experimental: as §4, with “rejection. […]” for “rejection.”
Every complete cross-section of the traceable arteries was calculated. The sections were reviewed by two independent reviewers masked to the status of the slides, and histologic changes were assessed semiquantitatively. The changes of intimal thickening were scored as mild (score 1, <25% occlusion of the lumen) when the intima was readily discernible, or as moderate (score 2, 25-50% occlusion) to severe (score 3, >50% occlusion).

[8] = Total plasma cholesterol levels (CHOD-PAP method); type: in vivo, mouse; conditions: atherogenic diet + c^3Ado 10 mg/kg/day oral, mean ± SEM
Experimental: Blood was collected via the tail vein from all mice after overnight fasting prior to initiation of the experiment, after 35 days feeding the different diets, and at time of death. Total plasma cholesterol levels were determined using the CHOD-PAP method (Boehringer Mannheim, Germany) as described previously (32).

[9] = group 3, atherogenic diet + c^3Ado
[10] = score 1 = no staining to 4 = strong staining, endothelial, ascending aorta, 9 weeks, mean ± SEM
[11] = mean ± SEM out of 3 sections per animal, 9 weeks atherogenic diet + c^3Ado

Sequence of adenosylhomocysteine hydrolase (P23526 whole entry): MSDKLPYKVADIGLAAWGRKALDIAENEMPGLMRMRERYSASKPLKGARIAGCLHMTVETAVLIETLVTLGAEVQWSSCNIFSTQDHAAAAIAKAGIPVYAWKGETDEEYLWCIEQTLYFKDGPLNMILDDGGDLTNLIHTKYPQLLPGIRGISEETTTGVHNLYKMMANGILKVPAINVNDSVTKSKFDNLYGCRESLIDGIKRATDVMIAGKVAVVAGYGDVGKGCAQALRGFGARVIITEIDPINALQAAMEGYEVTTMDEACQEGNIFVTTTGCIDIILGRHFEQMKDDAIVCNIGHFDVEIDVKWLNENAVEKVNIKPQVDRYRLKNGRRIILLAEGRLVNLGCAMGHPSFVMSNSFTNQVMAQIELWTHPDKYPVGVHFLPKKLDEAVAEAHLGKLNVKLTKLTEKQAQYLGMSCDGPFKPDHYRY

For Nc1nccc2c1ncn2[C@@H]1O[C@H](CO)[C@@H](O)[C@H]1O [c^3Ado, 3-deazaadenosine], the “Adherent CD11b-positive cells on the luminal surface” value (CD11b-positive monocytes; [9]) was “only a few adherent CD11b-positive cells”, the “CD11b-positive monocytic cells within the intima” value (CD11b-positive monocytes; [9]) was “no monocytic cells within the intima” and the “Amount of intimal monocytes (first column of this head)” value (CD11b-positive monocytes; mean ± SEM per section, 3 defined sections per animal, first of two columns with the same head (title: endothelial monocytes)) was 0.5 ± 0.2. For the same molecule, the “Amount of intimal monocytes (second column of this head)” value (CD11b-positive monocytes; mean ± SEM per section, 3 defined sections per animal, second of two columns with the same head) was 0 ± 0, the “Tumor necrosis factor-a-induced macrophage adhesion to endothelial cells” value (endothelial cells) was “reduces” and the “Complications as a result of therapy” value ([1]; 10 mg/kg/day oral, 120 days) was “No complications”. The “Graft survival (graft beat)” value ([1]; daily palpation, observation 120 days) was “kept beating for the duration of observation”, the Graft rejection ([1]; heart allograft, 120 days) was “completely free from rejection” and the “Endothelial expression of VCAM-1 in the aorta (words)” value (VCAM-1 [2]) was “completely absent”. For the same molecule, the “Endothelial expression of VCAM-1 in the aorta (words)” value (VCAM-1 [2]; listed as 3-deazaadenosine) was “no endothelial expression”, the VCAM-1 expression score (VCAM-1 [2]; [10]) was 1.0 ± 0 and the “Effect on adenosylhomocysteine hydrolase” value [3] was “suppresses”. For the same molecule, the Number of lesions (female C57BL/J6 mice; fatty streak lesions, mean ± SEM from 7 sections per animal) was 0 ± 0, the “Neointima in aortic cross sections” value (female C57BL/J6 mice; light micrographs, 200 μm cranial to aortic valve, FIG. 3) was “absent” and the “Medial Area” value (female C57BL/J6 mice; [11]) was 62.7 ± 2.5 × × 10^3 μm^2. The “Neointimal area” value (female C57BL/J6 mice; [11]) was 0.13 ± 0.03 × × 10^3 μm^2, the “NI/M Ratio (neointimal to medial area ratio)” value (female C57BL/J6 mice; 9 weeks atherogenic diet + c^3Ado) was 0.002 ± 0.0004 and the “NI/M Ratio (neointimal to medial area ratio)” value (female C57BL/J6 mice; 9 weeks atherogenic diet + c^3Ado, listed as c^aAdo) was 0.002±0.0004. The “Fatty streak lesions in sections of the ascending aorta” value (female C57BL/J6 mice; oil red O staining, 7 frozen sections per animal) was “no detectable lesions”, the “Neointimal area” value (female C57BL/J6 mice; proximal ascending aorta, planimetric analysis, atherogenic diet + c^3Ado, p<0.001) was 125±32 μm^2 and the “Neointimal thickness as NI/M, lower than in mice on atherogenic diet without c^3Ado” value (female C57BL/J6 mice; vs atherogenic diet alone, p<0.001) was 94%. The “ICAM-1 expression in the neointima of transplanted hearts” value (ICAM-1 [4]) was “almost no expression”, the “VCAM-1 expression in the neointima of transplanted hearts” value (VCAM-1 [5]) was “almost no expression” and the “Endothelial expression of ICAM-1 in the aorta (words)” value (ICAM-1 [6]) was “completely absent”. For the same molecule, the “Endothelial expression of ICAM-1 in the aorta (words)” value (ICAM-1 [6]; listed as 3-deazaadenosine) was “no endothelial expression”, the ICAM-1 expression score (ICAM-1 [6]; [10]) was 1.0 ± 0 and the “Monocyte chemotaxis and phagocytosis” value (monocyte) was “inhibit”. For the same molecule, the “Body weight day 65” value (Body weight development) was 25.3 ± 0.2 g, the “Intimal thickening of intramyocardial and epicardial arteries” value [7] was “almost no arterial intimal thickening” and the “Total cholesterol day 35” value ([8]; day 35, plasma) was 410 ± 19 mg/dL. The “Total cholesterol day 65” value ([8]; day 65, plasma) was 475 ± 10 mg/dL.
